Experimental findings from PubChem BioAssay AID179 (DTP/NCI, 2004) are described below.

Active and inactive are the calls of the source.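 How the source made its calls: active means compounds giving half or more protection of infected cells from virus-caused growth loss, again on retest; inactive means the rest.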

In the assay the test system is CEM cells HIV-1 protection, formazan growth assay. The experiment in a line: NCI AIDS Antiviral Assay. To be noted: for IC50: measured here: growth of uninfected CEM cells. The method, boiled down: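 Screen of anti-HIV-1 activity in human CEM cells using a formazan-based growth measurement at five drug concentrations. Hits with 50% or greater protection were repeated, and confirmation required reproducible complete protection.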

As a reminder, the EC50 is the concentration giving half of the maximal effect. By IC50 is commonly meant the concentration needed to halve the response being measured. A low value points to greater potency in that assay.

Turning to `CC(=O)Oc1cc(S(=O)(=O)Nc2n[nH]c(N)n2)c(S)cc1Cl`, the EC50 was greater than 200 µM and the IC50 was greater than 200 µM.

Regarding `O=C1/C(=C/c2cccs2)NC(=S)N1CN1CCOCC1`, the EC50 is greater than 200 µM and the IC50 stood at 34.7 µM.

Regarding `COc1ccc2nc3cc(Cl)ccc3c(Nc3ccccc3-c3ccccc3Nc3c4ccc(Cl)cc4nc4ccc(OC)cc34)c2c1`, the EC50 was greater than 4.07 µM and the IC50 was greater than 4.07 µM.

Regarding `Cc1ccc(-n2c(O)c3c(N)n[nH]c3c(C#N)c2=O)cc1`, the EC50 is 155 µM and the IC50 is greater than 200 µM.

As to `O=c1c2c([nH]c3nccn13)CCC2`, the EC50 was greater than 200 µM and the IC50 is greater than 200 µM.

`S=c1n(-c2ccc(Cl)cc2)c2nc3ccccc3nc(/c2=N\Nc2ccccc2)n1-c1ccc(Br)cc1`: the EC50 was greater than 61.7 µM and the IC50 was 31.6 µM.

Turning to `CCOC(=O)C(C(=O)OCC)=C1C=C(c2ccccc2)c2ccccc21`, the outcome was inactive.

Turning to `COc1ccc(C2CC(c3ccccc3)=Nc3ccccc3S2)cc1` (centres undefined), the EC50 is greater than 51.3 µM and the IC50 was determined as 27.5 µM.

As to `CCCCCCCCNC(=O)/C(=C\c1ccc2c(c1)OCO2)NC(=O)c1ccccc1`, the EC50 was greater than 58.9 µM and the IC50 turned out to be 45.7 µM.

As for `CONC1CC(n2cc(C)c(=O)[nH]c2=O)OC1CO` (centres undefined), the EC50 was greater than 200 µM and the IC50 was greater than 200 µM.
